We go through four compounds from patent EP0462585B1, “Herbicidal composition” (ISHIHARA SANGYO KAISHA, LTD., priority 1990, dated 1991).

Assay type in all cases: in vivo
One experiment concerns Solidago altissima. Put plainly: Test Example 1 foliage treatment test, fresh weight of foliage. The note with it: foliar, 600 h, read-out: Growth Inhibition Rate (%). The text has this:
Upland soil was placed in 1/5000-are (are (a) = 100 m²) wagner pots and planted with hills of Solidago altissima collected in the fields, and the hills were thereafter grown in a greenhouse. When the plant height reached 20 to 30 cm, a predetermined amount of each herbicidal composition which had been diluted with 15 ℓ, per are, of water and further admixed with 0.05 % (v/v) of a spreader (Shin Rino®: manufactured by Nihon Nohyaku Co., Ltd.) was foliarly applied on the plants using a small spray gun. 25 days after the foliage treatment application, the fresh weight of foliage was measured. The growth inhibition rate (%), which is listed in Table 1, was calculated according to the following equation: Growth Inhibition Rate (%) = (1 -(Fresh Weight of Foliage in Treated Plot)/(Fresh Weight of Foliage in Untreated Plot)) x 100 [formula]

The subject of experiment [1] is weeds such as Solidago altissima, Agropyron smithii and Digitaria sanguinalis. Put plainly: Test Example 3 field foliage treatment test, visual rating of herbicidal effect. To be noted: visual observation 30 days after foliage treatment. The text has this:
In a field where weeds such as Solidago altissima, Agropyron smithii and Digitaria sanguinalis had been growing mixedly, foliage treatment application of a predetermined amount of each herbicidal composition which had been diluted with 15 ℓ, per are, of water and further admixed with 0.05 % (v/v) of a spreader (Shin Rino®) was done using a small spray gun when the average plant height of these weeds reached 20 to 40 cm. 30 days after the foliage treatment application, the herbicidal effect of the herbicidal composition was examined through visual observation according to the following evaluation criteria.

The test system of a further experiment is Digitaria sanguinalis. Description: Test Example 2 foliage treatment test, fresh weight of aerial part; Colby expected value. The note with it: foliar, 480 h, read-out: Growth Inhibition Rate (%) Found. The text has this:
However, there may be a case that when two kinds of active ingredients are applied in combination, the resulting herbicidal activity is higher than one obtained by simply summing up the activity of each of the two active ingredients (i.e., an expected activity). In such a case, it is said that a synergistic action is found. The expected activity which is brought by a specific combination of two kinds of herbicides can be calculated by the following equation as described, for example, in S.R. Colby, Weeds, "Calculating Synergistic and Antagonistic Responses of Herbicide Combinations", Vol. 15, pp. 20-22 (1967). E = α + β -(α x β)/(100) [formula] In the above equation, α represents a growth inhibition rate (%) when treated with a (g/are) of herbicide A; β represents a growth inhibition rate (%) when treated with b (g/are) of herbicide B; and E represents an expected growth inhibition rate (%) when treated with a (g/are) of herbicide A and b (g/are) of herbicide B.
Upland soil was placed in 1/10000-are pots and sown with Digitaria sanguinalis. When the plants reached the four-leaf stage, a predetermined amount of each herbicidal composition which had been diluted with 15 ℓ, per are, of water and further admixed with 0.2 % (v/v) of a spreader (Shin Rino®) was foliarly applied on the plants using a small spray gun. 20 days after the foliage treatment application, the fresh weight of the aerial part of the plant was measured. The growth inhibition rate (%) calculated by the equation given in Test Example 1 (found value) and the growth inhibition rate (%) calculated by the above-cited Colby equation (calculated value) are listed in Table 2.

As a reminder, the inhibition is the drop in the measured response relative to a control, in per cent.

Counter-ions that a name gives are not always drawn. Like-named read-outs stand apart in the source and are kept apart here.

For the compound `CP(=O)(O)CC[C@H](N)C(=O)O` [Ammonium salt of L-isomer of Compound B, L-homoalanin-4-yl(methyl)phosphinic acid], in the experiment with Solidago altissima, the inhibition at 125 g/ha stood at 48%, the inhibition at 250 g/ha is 68% and the inhibition at 500 g/ha stood at 77%. For the same compound, the Rating in experiment [1] (5 g/a active ingredient) is 5 (50 to 59). Also, in experiment [1] (10 g/a active ingredient), the Rating is listed as 6 (60 to 69).

With `C[C@H](NC(=O)[C@H](C)NC(=O)C(N)CCP(C)(=O)O)C(=O)O` (stereo partly drawn) [Sodium salt of L-isomer of Compound C, L-2-amino-4-[(hydroxy)(methyl)phosphinoyl]butyryl-L-alanyl-L-alanine], the inhibition at 250 g/ha in the experiment on Solidago altissima (2.5 g/a active ingredient, 25 days after foliage treatment) is 51%. In the experiment on Solidago altissima (5 g/a active ingredient, 25 days after foliage treatment), the inhibition at 500 g/ha was 70%. Besides, the inhibition at 1000 g/ha in the experiment with Solidago altissima (10 g/a active ingredient, 25 days after foliage treatment) was determined as 79%. Moreover, the figures for the Rating in experiment [1] (5 g/a active ingredient) and in experiment [1] (10 g/a active ingredient) were 5 (50 to 59) and 6 (60 to 69), respectively.

Turning to `CP(=O)(O)CCC(N)C(=O)O` (racemic) [Ammonium salt of D,L-isomer of Compound B, D,L-homoalanin-4-yl(methyl)phosphinic acid], in the experiment with Solidago altissima, the inhibition at 250 g/ha came out at 55%, the inhibition at 500 g/ha amounted to 72% and the inhibition at 1000 g/ha came to 84%. In the experiment on Digitaria sanguinalis, the inhibition at 30 g/ha is 0.9%, the inhibition at 50 g/ha amounted to 12.8%, the inhibition at 100 g/ha is 35.8% and the inhibition at 200 g/ha was found to be 52.3%. Also, in the experiment with Digitaria sanguinalis, the inhibition at 300 g/ha was 85%, the inhibition at 400 g/ha is 90% and the inhibition at 1000 g/ha is 100%. Further, the Rating in experiment [1] (5 g/a active ingredient) is recorded as 5 (50 to 59). The Rating in experiment [1] (10 g/a active ingredient) is 7 (70 to 79).

For `COc1cc(OC)nc(NC(=O)NS(=O)(=O)c2ncccc2C(F)(F)F)n1` [Compound A, 1-(4,6-dimethoxypyrimidin-2-yl)-3-(3-trifluoromethyl-2-pyridylsulfonyl)urea], the inhibition at 25 g/ha in the experiment on Solidago altissima (0.25 g/a active ingredient, 25 days after foliage treatment) came out at 46%. In addition, in the experiment on Solidago altissima (0.5 g/a active ingredient, 25 days after foliage treatment), the inhibition at 50 g/ha was determined as 51%. The inhibition at 100 g/ha is 63% in the experiment with Solidago altissima (1 g/a active ingredient, 25 days after foliage treatment) and 67.3% in the experiment on Digitaria sanguinalis (1 g/a active ingredient, 20 days after foliage treatment). In addition, the inhibition at 5 g/ha in the experiment with Digitaria sanguinalis (0.05 g/a active ingredient, 20 days after foliage treatment) amounted to 0%. For the same compound, the inhibition at 10 g/ha in the experiment on Digitaria sanguinalis (0.1 g/a active ingredient, 20 days after foliage treatment) is 3.5%. Also, in the experiment with Digitaria sanguinalis (0.2 g/a active ingredient, 20 days after foliage treatment), the inhibition at 20 g/ha amounted to 5.3%. For the same compound, the inhibition at 40 g/ha in the experiment on Digitaria sanguinalis (0.4 g/a active ingredient, 20 days after foliage treatment) stood at 16.9%. For the same compound, in the experiment with Digitaria sanguinalis (0.6 g/a active ingredient, 20 days after foliage treatment), the inhibition at 60 g/ha came to 47.4%. Also, in the experiment with Digitaria sanguinalis (5 g/a active ingredient, 20 days after foliage treatment), the inhibition at 500 g/ha is 99.4%. Moreover, the Rating is given as 5 (50 to 59) in experiment [1] (0.5 g/a active ingredient) and 6 (60 to 69) in experiment [1] (1 g/a active ingredient).
